Source: patent US11571423B2, “Small molecule modulators of human sting” (Curadev Pharma Limited, priority 2017, dated 2023)

What follows are molecules tested against hSTING(R232) (Homo sapiens, UniProt Q86WV6, H232R) (assay: Luciferase reporter assay in HEK293T-hSTING-Luciferase cells, R232 (wild type) human STING). Conditions: 20 hr stimulation, read-out: R232 human activity (EC50 range).
Type: cell-based
In short: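 Clonal HEK293T cells stably expressing STING from a pUNO-1 plasmid plus an ISRE/ISG54-driven secreted luciferase reporter; 5×10^5 cells stimulated with compound for 20 hr. Supernatant luciferase read by luminescence, giving fold-induction over baseline and EC50.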

Chain of hSTING(R232) (Q86WV6 whole entry H232R): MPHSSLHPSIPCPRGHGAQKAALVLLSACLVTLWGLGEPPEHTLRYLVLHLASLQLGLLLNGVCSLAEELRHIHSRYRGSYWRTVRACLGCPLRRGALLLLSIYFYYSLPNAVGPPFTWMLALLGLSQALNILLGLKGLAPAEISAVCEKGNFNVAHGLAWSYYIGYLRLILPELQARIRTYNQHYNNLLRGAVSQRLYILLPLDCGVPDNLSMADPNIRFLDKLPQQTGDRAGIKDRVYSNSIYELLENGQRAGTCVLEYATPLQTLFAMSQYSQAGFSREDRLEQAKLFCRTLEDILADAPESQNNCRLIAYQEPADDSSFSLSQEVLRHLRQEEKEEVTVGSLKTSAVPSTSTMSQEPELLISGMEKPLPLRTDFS

Question: `CC1c2ccc(C(=O)NCc3c(F)cc(F)cc3F)cc2N(Cc2c(F)cc(F)cc2OC(F)(F)F)C(=O)N1C` (stereo not drawn) [Example 210, 1-(2,4-difluoro-6-(trifluoromethoxy)benzyl)-3,4-dimethyl-2-oxo-N-(2,4,6-trifluorobenzyl)-1,2,3,4-tetrahydroquinazoline-7-carboxamide] was tested. Which EC50 did it give?
Answer: Its EC50 is < 1000 nM.

Question: For `CC1c2ccc(C(=O)NCc3c(F)cc(F)cc3F)cc2N(Cc2ccncc2F)C(=O)N1C` (stereo not drawn) [Example 211, 1-((3-fluoropyridin-4-yl)methyl)-3,4-dimethyl-2-oxo-N-(2,4,6-trifluorobenzyl)-1,2,3,4-tetrahydroquinazoline-7-carboxamide], which EC50 is on record?
Answer: Its EC50 is < 1000 nM.

Question: `CC1c2ccc(C(=O)NCc3ccccc3)cc2N(Cc2ccccc2)C(=O)N1C` (stereo not drawn) [Example 214, N,1-dibenzyl-3,4-dimethyl-2-oxo-1,2,3,4-tetrahydroquinazoline-7-carboxamide] was tested. Which EC50 did it give?
Answer: The EC50 was 1000 to 10000 nM.

Question: `Cc1cccc(C)c1CN1C(=O)N(C)C(C)c2ccc(C(=O)NCc3c(F)cc(F)cc3F)cc21` (stereo not drawn) [Example 215, 1-(2,6-dimethylbenzyl)-3,4-dimethyl-2-oxo-N-(2,4,6-trifluorobenzyl)-1,2,3,4-tetrahydroquinazoline-7-carboxamide] was tested. Which EC50 did it give?
Answer: Its EC50 is < 1000 nM.

Question: `CC1c2ccc(C(=O)NCc3c(F)cc(F)cc3F)cc2N(Cc2c(F)cccc2OC(F)F)C(=O)N1C` (stereo not drawn) [Example 216, 1-(2-(difluoromethoxy)-6-fluorobenzyl)-3,4-dimethyl-2-oxo-N-(2,4,6-trifluorobenzyl)-1,2,3,4-tetrahydroquinazoline-7-carboxamide] was tested. Which EC50 did it give?
Answer: Its EC50 is < 1000 nM.

Question: For `COc1ccc(CN2C(=O)N(C)C(C)c3ccc(C(=O)NCc4c(F)cc(F)cc4F)cc32)c(F)c1` (stereo not drawn) [Example 217, 1-(2-fluoro-4-methoxybenzyl)-3,4-dimethyl-2-oxo-N-(2,4,6-trifluorobenzyl)-1,2,3,4-tetrahydroquinazoline-7-carboxamide], which EC50 is on record?
Answer: The EC50 was < 1000 nM.

Question: For `CC1c2ccc(C(=O)NCc3c(F)cc(F)cc3F)cc2N(Cc2ccc(F)cc2)C(=O)N1C` (stereo not drawn) [Example 218, 1-(4-fluorobenzyl)-3,4-dimethyl-2-oxo-N-(2,4,6-trifluorobenzyl)-1,2,3,4-tetrahydroquinazoline-7-carboxamide], which EC50 is on record?
Answer: The EC50 was < 1000 nM.

Question: Which EC50 does the source give for `CC1c2ccc(C(=O)NCc3c(F)cc(F)cc3F)cc2N(Cc2ccc(Cl)cc2F)C(=O)N1C` (stereo not drawn) [Example 219, 1-(4-chloro-2-fluorobenzyl)-3,4-dimethyl-2-oxo-N-(2,4,6-trifluorobenzyl)-1,2,3,4-tetrahydroquinazoline-7-carboxamide] here?
Answer: The EC50 was < 1000 nM.

Question: For `Cc1ccc(F)c(CN2C(=O)N(C)C(C)c3ccc(C(=O)NCc4c(F)cc(F)cc4F)cc32)c1Br` (stereo not drawn) [Example 220, 1-(2-bromo-6-fluoro-3-methylbenzyl)-3,4-dimethyl-2-oxo-N-(2,4,6-trifluorobenzyl)-1,2,3,4-tetrahydroquinazoline-7-carboxamide], which EC50 is on record?
Answer: The EC50 was < 1000 nM.

Question: Which EC50 does the source give for `CC1c2ccc(C(=O)NCc3c(F)cc(F)cc3F)cc2N(Cc2ccc(F)cc2Cl)C(=O)N1C` (stereo not drawn) [Example 221, 1-(2-chloro-4-fluorobenzyl)-3,4-dimethyl-2-oxo-N-(2,4,6-trifluorobenzyl)-1,2,3,4-tetrahydroquinazoline-7-carboxamide] here?
Answer: Its EC50 is < 1000 nM.

Question: How did the EC50 turn out when `CC1c2ccc(C(=O)NCc3c(F)cc(F)cc3F)cc2N(Cc2c(F)cc(Cl)cc2F)C(=O)N1C` (stereo not drawn) [Example 222, 1-(4-chloro-2,6-difluorobenzyl)-3,4-dimethyl-2-oxo-N-(2,4,6-trifluorobenzyl)-1,2,3,4-tetrahydroquinazoline-7-carboxamide] was run?
Answer: Its EC50 is < 1000 nM.

Question: For `Cc1cc(CN2C(=O)N(C)C(C)c3ccc(C(=O)NCc4cc5cc(F)ccc5o4)cc32)n(C)n1` (stereo not drawn) [Example 223, 1-((1,3-dimethyl-1H-pyrazol-5-yl)methyl)-N-((5-fluorobenzofuran-2-yl)methyl)-3,4-dimethyl-2-oxo-1,2,3,4-tetrahydroquinazoline-7-carboxamide], which EC50 is on record?
Answer: The EC50 was 1000 to 10000 nM.

Question: With `Cc1nn(C)c(CN2C(=O)N(C)C(C)c3ccc(C(=O)NCc4cc5cc(F)ccc5o4)cc32)c1F` (stereo not drawn) [Example 224, 1-((4-fluoro-1,3-dimethyl-1H-pyrazol-5-yl)methyl)-N-((5-fluorobenzofuran-2-yl)methyl)-3,4-dimethyl-2-oxo-1,2,3,4-tetrahydroquinazoline-7-carboxamide] as the molecule, how does the EC50 read?
Answer: The EC50 was < 1000 nM.

Question: How did the EC50 turn out when `CC1c2ccc(C(=O)NCc3c(F)cc(F)cc3F)cc2N(Cc2c(F)cccc2NS(C)(=O)=O)C(=O)N1C` (stereo not drawn) [Example 225, 1-(2-fluoro-6-(methylsulfonamido)benzyl)-3,4-dimethyl-2-oxo-N-(2,4,6-trifluorobenzyl)-1,2,3,4-tetrahydroquinazoline-7-carboxamide] was run?
Answer: The EC50 was 1000 to 10000 nM.

Question: With `CC(=O)Nc1cccc(F)c1CN1C(=O)N(C)C(C)c2ccc(C(=O)NCc3c(F)cc(F)cc3F)cc21` (stereo not drawn) [Example 226, 1-(2-acetamido-6-fluorobenzyl)-3,4-dimethyl-2-oxo-N-(2,4,6-trifluorobenzyl)-1,2,3,4-tetrahydroquinazoline-7-carboxamide] as the molecule, how does the EC50 read?
Answer: Its EC50 is 1000 to 10000 nM.

Question: Which EC50 does the source give for `CC1c2ccc(C(=O)NCc3c(F)cc(F)cc3F)cc2N(Cc2ccc(OCC(=O)O)cc2F)C(=O)N1C` (stereo not drawn) [Example 228, 2-(4-((3,4-dimethyl-2-oxo-7-((2,4,6-trifluorobenzyl)carbamoyl)-3,4-dihydroquinazolin-1(2H)-yl)methyl)-3-fluorophenoxy)acetic acid] here?
Answer: Its EC50 is > 10000 nM.

Question: How did the EC50 turn out when `CC1c2ccc(C(=O)NCc3c(F)cc(F)cc3F)cc2N(Cc2cc(OCC(=O)O)ccc2F)C(=O)N1C` (stereo not drawn) [Example 229, 2-(3-((3,4-dimethyl-2-oxo-7-((2,4,6-trifluorobenzyl)carbamoyl)-3,4-dihydroquinazolin-1(2H)-yl)methyl)-4-fluorophenoxy)acetic acid] was run?
Answer: Its EC50 is > 10000 nM.

Question: `CC1c2ccc(C(=O)NCc3c(F)cc(F)cc3F)cc2N(Cc2ccc(OCCO)cc2F)C(=O)N1C` (stereo not drawn) [Example 230, 1-(2-fluoro-4-(2-hydroxyethoxy)benzyl)-3,4-dimethyl-2-oxo-N-(2,4,6-trifluorobenzyl)-1,2,3,4-tetrahydroquinazoline-7-carboxamide] was tested. Which EC50 did it give?
Answer: The EC50 was < 1000 nM.

Question: Which EC50 does the source give for `CC1c2ccc(C(=O)NCc3c(F)cc(F)cc3F)cc2N(Cc2cc(OCCO)ccc2F)C(=O)N1C` (stereo not drawn) [Example 233, 1-(2-fluoro-5-(2-hydroxyethoxy)benzyl)-3,4-dimethyl-2-oxo-N-(2,4,6-trifluorobenzyl)-1,2,3,4-tetrahydroquinazoline-7-carboxamide] here?
Answer: Its EC50 is < 1000 nM.

Question: Which EC50 does the source give for `CC1c2ccc(C(=O)NCc3c(F)cc(F)cc3F)cc2N(Cc2c(F)cccc2OCC(=O)O)C(=O)N1C` (stereo not drawn) [Example 234, 2-(2-((3,4-dimethyl-2-oxo-7-((2,4,6-trifluorobenzyl)carbamoyl)-3,4-dihydroquinazolin-1(2H)-yl)methyl)-3-fluorophenoxy)acetic acid] here?
Answer: The EC50 was > 10000 nM.

Question: With `CC1c2ccc(C(=O)NCc3c(F)cc(F)cc3F)cc2N(Cc2c(F)cccc2OCCO)C(=O)N1C` (stereo not drawn) [Example 236, 1-(2-fluoro-6-(2-hydroxyethoxy)benzyl)-3,4-dimethyl-2-oxo-N-(2,4,6-trifluorobenzyl)-1,2,3,4-tetrahydroquinazoline-7-carboxamide] as the molecule, how does the EC50 read?
Answer: The EC50 was < 1000 nM.

Question: With `CC1c2ccc(C(=O)NCc3ccc(OCC(=O)O)cc3)cc2N(Cc2c(F)cccc2Cl)C(=O)N1C` (stereo not drawn) [Example 240, 2-(4-((1-(2-chloro-6-fluorobenzyl)-3,4-dimethyl-2-oxo-1,2,3,4-tetrahydroquinazoline-7-carboxamido)methyl)phenoxy)acetic acid] as the molecule, how does the EC50 read?
Answer: Its EC50 is > 10000 nM.

Question: How did the EC50 turn out when `C[C@H]1c2ccc(C(=O)NCc3c(F)cc(F)cc3F)cc2N(Cc2c(OCC(=O)O)ccc(F)c2F)C(=O)N1C` [Example 244, (S)-2-(2-((3,4-dimethyl-2-oxo-7-((2,4,6-trifluorobenzyl)carbamoyl)-3,4-dihydroquinazolin-1(2H)-yl)methyl)-3,4-difluorophenoxy)acetic acid] was run?
Answer: The EC50 was < 1000 nM.

Question: How did the EC50 turn out when `COc1cccc(F)c1CNC(=O)c1ccc2c(c1)N(Cc1c(F)cccc1Cl)C(=O)N(C)[C@H]2C` [Example 245, (S)-1-(2-chloro-6-fluorobenzyl)-N-(2-fluoro-6-methoxybenzyl)-3,4-dimethyl-2-oxo-1,2,3,4-tetrahydroquinazoline-7-carboxamide] was run?
Answer: Its EC50 is 1000 to 10000 nM.

Question: With `COc1cc(F)ccc1CNC(=O)c1ccc2c(c1)N(Cc1c(F)cccc1Cl)C(=O)N(C)[C@H]2C` [Example 247, (S)-1-(2-chloro-6-fluorobenzyl)-N-(4-fluoro-2-methoxybenzyl)-3,4-dimethyl-2-oxo-1,2,3,4-tetrahydroquinazoline-7-carboxamide] as the molecule, how does the EC50 read?
Answer: The EC50 was 1000 to 10000 nM.

Question: `COc1cc(F)cc(CNC(=O)c2ccc3c(c2)N(Cc2c(F)cccc2Cl)C(=O)N(C)[C@H]3C)c1` [Example 248, (S)-1-(2-chloro-6-fluorobenzyl)-N-(3-fluoro-5-methoxybenzyl)-3,4-dimethyl-2-oxo-1,2,3,4-tetrahydroquinazoline-7-carboxamide] was tested. Which EC50 did it give?
Answer: Its EC50 is 1000 to 10000 nM.

Question: Which EC50 does the source give for `COc1cccc(CNC(=O)c2ccc3c(c2)N(Cc2c(F)cccc2Cl)C(=O)N(C)[C@H]3C)c1F` [Example 249, (S)-1-(2-chloro-6-fluorobenzyl)-N-(2-fluoro-3-methoxybenzyl)-3,4-dimethyl-2-oxo-1,2,3,4-tetrahydroquinazoline-7-carboxamide] here?
Answer: The EC50 was 1000 to 10000 nM.

Question: `C[C@H]1c2ccc(C(=O)NCc3cc(O)cc(F)c3)cc2N(Cc2c(F)cccc2Cl)C(=O)N1C` [Example 250, (S)-1-(2-chloro-6-fluorobenzyl)-N-(3-fluoro-5-hydroxybenzyl)-3,4-dimethyl-2-oxo-1,2,3,4-tetrahydroquinazoline-7-carboxamide] was tested. Which EC50 did it give?
Answer: Its EC50 is < 1000 nM.

Question: With `C[C@H]1c2ccc(C(=O)NCc3c(O)cccc3F)cc2N(Cc2c(F)cccc2Cl)C(=O)N1C` [Example 251, (S)-1-(2-chloro-6-fluorobenzyl)-N-(2-fluoro-6-hydroxybenzyl)-3,4-dimethyl-2-oxo-1,2,3,4-tetrahydroquinazoline-7-carboxamide] as the molecule, how does the EC50 read?
Answer: Its EC50 is 1000 to 10000 nM.

Question: How did the EC50 turn out when `C[C@H]1c2ccc(C(=O)NCc3ccc(F)cc3O)cc2N(Cc2c(F)cccc2Cl)C(=O)N1C` [Example 253, (S)-1-(2-chloro-6-fluorobenzyl)-N-(4-fluoro-2-hydroxybenzyl)-3,4-dimethyl-2-oxo-1,2,3,4-tetrahydroquinazoline-7-carboxamide] was run?
Answer: Its EC50 is 1000 to 10000 nM.
